{"source": "patent US11040947B2", "about": "“Substituted quinazolines as matrix metalloproteinase-9 hemopexin domain inhibitors” (The Research Foundation for The State University of New York, priority 2017, dated 2021)", "key": {"proMMP-9 [1]": {"target": "T1, proMMP-9 (Homo sapiens, UniProt P14780)", "T1 construct": "Purified recombinant MMP-9 (50 nmol/L) or MMP-9/MMP-2PEX (50 nmol/L) was diluted in buffer", "T1 sequence (P14780 20-707 limits assumed)": "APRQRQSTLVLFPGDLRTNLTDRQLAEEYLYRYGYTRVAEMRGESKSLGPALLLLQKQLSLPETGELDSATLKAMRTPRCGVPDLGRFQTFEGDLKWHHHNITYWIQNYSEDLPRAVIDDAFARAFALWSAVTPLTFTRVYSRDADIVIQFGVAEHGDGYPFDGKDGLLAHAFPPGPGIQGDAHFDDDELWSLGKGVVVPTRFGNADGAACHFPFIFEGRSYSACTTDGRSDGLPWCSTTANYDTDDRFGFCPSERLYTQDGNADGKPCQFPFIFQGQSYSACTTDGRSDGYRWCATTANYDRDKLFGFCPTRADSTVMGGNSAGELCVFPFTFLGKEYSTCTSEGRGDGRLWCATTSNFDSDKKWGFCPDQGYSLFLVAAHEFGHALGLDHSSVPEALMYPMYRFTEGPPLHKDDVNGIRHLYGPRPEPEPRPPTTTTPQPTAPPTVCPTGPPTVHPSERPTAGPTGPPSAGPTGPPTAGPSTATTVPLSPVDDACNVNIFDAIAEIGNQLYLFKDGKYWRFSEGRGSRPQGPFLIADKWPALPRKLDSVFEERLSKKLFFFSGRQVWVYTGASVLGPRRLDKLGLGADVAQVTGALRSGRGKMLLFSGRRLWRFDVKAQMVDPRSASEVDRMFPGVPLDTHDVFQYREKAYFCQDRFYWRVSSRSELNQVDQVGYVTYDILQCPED", "test": "proMMP-9 tryptophan fluorescence blue shift binding assay", "experimental": "A blue shift in proMMP-9 tryptophan fluorescence was monitored to determine the binding affinity of all compounds. Binding of a test compound to MMP-9 was assayed by observing the change of tryptophan emission upon binding. Purified recombinant MMP-9 (50 nmol/L) or MMP-9/MMP-2PEX (50 nmol/L) was diluted in buffer (50 mmol/L Tris-HCl, 60 mmol/L KCl, and 0.05% Tween 20, pH 7.4) in the presence or absence of the test compound. As a control for protein stability and loss, an analogous buffer solution was added to the protein. The protein sample was excited at 280 nm and emission scans were collected from 290 to 400 nm, using slit widths of 0.3 nm on a QM 4/200SE spectrofluorimeter with double excitation and emission monochromators. Three emission scans were collected and averaged at each concentration. The Kd was determined using the Prism software package (GraphPad V5) to fit the data to Equation (Δ). λmax=(λmax^∞×[2])/(Kd+[2]) (A) in which λmax is the wavelength at which maximal fluorescence of the protein was observed."}, "[2]": {"tested_on": "proMMP9-mediated migration of COS-1 cells", "test": "two-dimensional collagen dot migration assay, COS-1 cells overexpressing proMMP-9", "format": "cell-based", "conditions": "50 μM", "experimental": "This assay was initially used to test the efficacy of analogs at a single concentration, 50 μM.\nCells were mixed with type I collagen solution with or without compound, dotted onto a 96-well plate, and allowed to migrate for 18 hours. They were then fixed, stained and scored for extent of migration."}, "proMMP-9 [3]": {"target": "T1, proMMP-9", "test": "saturated transfer difference (STD) NMR, proMMP-9", "format": "binding", "conditions": "saturation of 1.12 ppm resonance", "procedure": "As an additional test of binding selectivity, saturated transfer difference (STD) NMR was performed with purified recombinant proMMP-2 and proMMP-9 protein. ProMMP-2 and proMMP-9 are highly similar in structure and function, belonging to the same subfamily of MMPs known as the type IV collagenases and/or gelatinases. Thus proMMP-2 constitutes the best control for testing the selectivity of the PEX-9 inhibitor. Selective saturation of the 1.12 ppm resonance (proMMP-2 and proMMP-9) was used for STD NMR spectra. […] Thus, binding specificity is maintained upon increasing binding affinity."}, "[4]": {"tested_on": "proMMP-14-mediated migration of COS-1 cells", "test": "two-dimensional dot migration assay, COS-1 cells stably expressing proMMP-14", "format": "cell-based", "procedure": "To test whether compound 3c is specific for inhibiting only proMMP9-mediated migration, a two-dimensional dot migration assay was performed using COS-1 cells engineered to stably express vector control pQCXIP, proMMP-2, proMMP-9, or proMMP-14 cDNA vectors. An immunoblot was performed to confirm protein expression and proper localization of each MMP (MMP-2/-9 are secreted while MMP-14 is membrane bound)."}, "[5]": {"target": "T2, APMA-activated recombinant proMMP-9 (Homo sapiens, UniProt P14780)", "T2 construct": "made in house", "T2 sequence (P14780 107-707 limits assumed)": "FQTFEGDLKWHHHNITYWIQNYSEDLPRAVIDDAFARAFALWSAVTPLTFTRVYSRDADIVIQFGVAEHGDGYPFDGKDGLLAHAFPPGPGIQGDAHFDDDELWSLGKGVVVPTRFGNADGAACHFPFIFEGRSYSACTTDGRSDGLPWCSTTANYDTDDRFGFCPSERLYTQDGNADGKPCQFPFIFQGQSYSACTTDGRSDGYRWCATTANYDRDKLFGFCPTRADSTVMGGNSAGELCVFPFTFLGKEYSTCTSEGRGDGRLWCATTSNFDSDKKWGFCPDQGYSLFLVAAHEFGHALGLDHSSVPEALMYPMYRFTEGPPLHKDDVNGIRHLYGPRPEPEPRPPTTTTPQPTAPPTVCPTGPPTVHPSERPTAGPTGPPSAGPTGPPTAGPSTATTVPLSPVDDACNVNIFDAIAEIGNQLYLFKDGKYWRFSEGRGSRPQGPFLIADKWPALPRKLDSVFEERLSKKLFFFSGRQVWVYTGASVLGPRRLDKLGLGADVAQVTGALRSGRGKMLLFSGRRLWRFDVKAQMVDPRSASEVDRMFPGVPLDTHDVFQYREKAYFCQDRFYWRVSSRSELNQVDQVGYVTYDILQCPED", "test": "MMP-9 catalytic activity with fluorogenic peptide", "format": "biochemical", "conditions": "10 μM fluorogenic peptide, monitored over 2 hours", "procedure": "Recombinant proMMP-9 protein was purified and incubated overnight in a 37° C. water bath in TNC buffer+1 mM APMA to artificially activate the protein."}, "[6]": {"tested_on": "HT1080 fibrosarcoma cells", "test": "chronic toxicity in HT1080 cells", "format": "cell-based, Human", "conditions": "100 μM, HT1080 cells re-treated every three days for nine days", "procedure": "Compound 3c was evaluated for acute cytotoxicity. COS-1 cells stably expressing either vector control or proMMP-9 cDNA were treated with 50 μM 3c for 24 hours. As negative and positive controls, cells were treated with DMSO alone or 100 nM staurosporine (STS), an apoptosis inducer, respectively. […] A non-statistically significant 8% decrease in cell growth occurred after treatment with 50 μM of compound 3c. These experiments were repeated in endogenous MMP-9 expressing HT1080 fibrosarcoma cells, which were analyzed for chronic toxicity (cells were re-treated every three days for a total of nine days)."}, "MMP-9 dimer": {"target": "T3, MMP-9 dimer (Homo sapiens, UniProt P14780)", "T3 construct": "expressed in transfected cells; host or cells: HT1080 human fibrosarcoma cells", "T3 sequence (P14780 94-707)": "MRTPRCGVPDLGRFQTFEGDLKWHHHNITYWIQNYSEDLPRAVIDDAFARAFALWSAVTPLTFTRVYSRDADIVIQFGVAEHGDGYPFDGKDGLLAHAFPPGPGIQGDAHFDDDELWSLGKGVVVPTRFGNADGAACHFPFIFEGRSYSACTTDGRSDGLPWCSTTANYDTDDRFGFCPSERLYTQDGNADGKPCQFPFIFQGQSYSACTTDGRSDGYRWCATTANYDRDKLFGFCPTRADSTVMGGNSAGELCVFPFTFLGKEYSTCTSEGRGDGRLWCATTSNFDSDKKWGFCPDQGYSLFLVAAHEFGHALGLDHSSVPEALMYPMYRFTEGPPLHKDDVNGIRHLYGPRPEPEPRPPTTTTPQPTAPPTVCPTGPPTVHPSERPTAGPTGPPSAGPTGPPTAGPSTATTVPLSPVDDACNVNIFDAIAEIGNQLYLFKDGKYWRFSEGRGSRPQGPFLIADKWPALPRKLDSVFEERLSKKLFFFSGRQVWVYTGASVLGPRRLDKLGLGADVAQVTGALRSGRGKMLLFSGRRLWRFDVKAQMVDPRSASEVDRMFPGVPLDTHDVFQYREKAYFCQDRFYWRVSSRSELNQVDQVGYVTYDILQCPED", "test": "MMP-9 dimer formation, Myc/HA co-immunoprecipitation in HT1080 cells", "format": "cell-based", "conditions": "50 μM overnight, compared to control compound 1f", "excerpt": "Human fibroscarcoma HT1080 cells were co-transfected with MMP-9 cDNAs tagged with either a Myc or HA tag as previously reported. […] Using Myc antibody for immunoprecipitation and HA antibody for immunoblotting, the formation of dimeric MMP-9 was monitored."}, "[7]": {"target": "T4, MMP-9 association with CD44 and EGFR (Homo sapiens, UniProt P14780)", "T4 construct": "expressed in transfected cells; host or cells: HT1080 human fibrosarcoma cells (MMP-9 transfected; CD44 and EGFR endogenous)", "T4 sequence (P14780 94-707)": "as above", "test": "co-immunoprecipitation of endogenous CD44 and EGFR with MMP-9 in HT1080 cells", "format": "cell-based", "conditions": "50 μM overnight"}, "[8]": {"target": "T5, MMP-9 interaction with α4/β1 integrin (Homo sapiens, UniProt P14780)", "T5 construct": "expressed in transfected cells; host or cells: HT1080 cells (MMP-9 transfected; integrin endogenous)", "T5 sequence (P14780 94-707)": "as above", "test": "co-immunoprecipitation of endogenous integrin with MMP-9 in HT1080 cells", "format": "cell-based", "conditions": "50 μM", "procedure": "(§1) HT1080 cells transiently co-transfected with tagged MMP-9 cDNAs were prepared as described above."}, "[9]": {"tested_on": "Src^Tyr418, FAK^Tyr576/577, PAX^Tyr118 phosphorylation", "test": "phosphorylation of Src and downstream targets in HT1080 cells", "format": "cell-based, Human", "conditions": "50 μM", "procedure": "as §1"}, "[10]": {"tested_on": "MMP-9 at the cell surface of HT1080 cells", "test": "MMP-9 cell surface localization, immunofluorescence in HT1080 cells", "format": "cell-based, Human", "procedure": "HT1080 cells were fixed in 4% paraformaldehyde then subsequently incubated with anti-MMP-9 in addition to anti-α4 and/or β1 integrin antibodies to monitor relative levels of localization of these proteins at the cell surface. The cells were counterstained with DAPI nuclear dye."}, "[11]": {"tested_on": "FAK and PAX adhesion junctions in HT1080 cells", "test": "focal adhesion complexes, immunofluorescence in HT1080 cells", "format": "cell-based, Human", "conditions": "50 μM overnight"}, "[12]": {"tested_on": "EGFR-CD44 and EGFR-β1 integrin interaction", "test": "EGFR co-IP assay with CD44 and β1 integrin in HT1080 cells", "format": "cell-based, Human", "conditions": "50 μM", "procedure": "HT1080 cells were treated with 50 μM 3c, 1a, 1f or DMSO alone. Cell lysates were collected and analyzed by a co-IP assay in which endogenous EGFR was captured with an anti-EGFR antibody and served as an input control. CD44 and β1 integrin were individually probed on the immunoblot."}, "HT1080 cells [13]": {"tested_on": "HT1080 cells", "test": "cell adhesion to collagen or fibronectin coated plate", "format": "cell-based, Human", "conditions": "37° C. 30 min", "procedure": "A 96-well plate was coated with a thin layer of either collagen or fibronectin (5 μg/ml in PBS) substrate before use. HT1080 cells were then seeded onto wells and incubated at 37° C. for 30 min in the presence of various inhibitors. Wells were washed and cells were fixed in 4% paraformaldehyde and stained with DAPI. Images of each 96-well were microscopically captured and counted for the number of cells still adherent to the coated surface using automated computer software."}, "HT1080 cells [14]": {"tested_on": "HT1080 cells", "test": "chorioallantoic membrane (CAM) assay, angiogenesis", "format": "in vivo, chicken embryo", "conditions": "100 μM stock solution (final estimated 0.5 μM), 4-day incubation, vs DMSO and 1f", "procedure": "A CAM assay was carried out to evaluate angiogenic and invasive potential of HT1080 cells after treatment with 3c. […] After a 4-day incubation, neovascularization was imaged and quantified."}, "[15]": {"tested_on": "HT1080 cells stably expressing GFP", "test": "chorioallantoic membrane (CAM) assay, invasion", "format": "in vivo, chicken embryo", "conditions": "100 μM stock solution (final estimated 0.5 μM), vs DMSO or 1f", "procedure": "HT1080 cells stably expressing GFP were mixed with a type I collagen solution (3 mg/mL) and seeded atop the CAM to ensure the cells localized to a specific area. […] The invasion of cancer cells through the epithelium and basement membrane of the upper CAM into connecting tissue was examined by hematoxylin and eosin staining in addition to fluorescence microscopy for GFP^+ cells."}}, "data": [{"smiles": "O=C(CCCSc1nc2c(c(=O)[nH]1)CCCC2)Nc1ccc(F)cc1", "note": "[Compound 3c, N-(4-Fluorophenyl)-4-(4-oxo-3,4,5,6,7,8-hexahydroquinazolin-2-ylthio)butanamide]", "values": [{"measurement": "binding to proMMP-9 relative to parent compound 1a", "setting": "proMMP-9 [1]; Kd compared with 1a", "value": "four times tighter"}, {"measurement": "Kd", "setting": "proMMP-9 [1]; binding to proMMP-9, tryptophan fluorescence", "value": 0.32, "unit": "µM"}, {"measurement": "effectiveness among the tested compounds in migration assay", "setting": "[2]", "value": "most effective"}, {"measurement": "inhibition at 50 µM", "setting": "[2]; Chlorocebus aethiops, 18 hours", "value": "90 ± 2", "unit": "%"}, {"measurement": "STD NMR peaks in presence of proMMP-9", "setting": "proMMP-9 [3]", "value": "STD peaks were observed"}, {"measurement": "inhibition of proMMP-14-mediated migration", "setting": "[4]", "value": "only inhibited proMMP9-mediated migration"}, {"measurement": "inhibition of MMP-9 catalytic activity", "setting": "[5]", "value": "No inhibition of the catalytic activity was observed"}, {"measurement": "cell death, chronic toxicity", "setting": "[6]", "value": "No cell death was observed"}, {"measurement": "MMP-9 dimer formation", "setting": "MMP-9 dimer", "value": "significantly blocked MMP-9 dimer formation"}, {"measurement": "endogenous CD44 and EGFR co-immunoprecipitation", "setting": "[7]", "value": "reduced endogenous CD44 and EGFR co-immunoprecipitation"}, {"measurement": "endogenous α4β3 integrin co-immunoprecipitation", "setting": "[8]", "value": "reduced endogenous α4β3 integrin co-immunoprecipitation"}, {"measurement": "Src^Tyr418 phosphorylation and phosphorylation of FAK^Tyr576/577 and PAX^Tyr118", "setting": "[9]", "value": "reduced Src^Tyr418 phosphorylation"}, {"measurement": "localization of MMP-9 on the cell surface", "setting": "[10]", "value": "loss of MMP-9 from the cell surface"}, {"measurement": "formation of FAK and PAX adhesion junctions", "setting": "[11]", "value": "A decrease in the formation of FAK and PAX adhesion junctions"}, {"measurement": "interaction between EGFR-CD44 and EGFR-β1 integrin", "setting": "[12]", "value": "Decreased interaction between EGFR-CD44 and EGFR-β1 integrin"}, {"measurement": "cellular adhesion", "setting": "HT1080 cells [13]", "value": "inhibited cellular adhesion"}, {"measurement": "angiogenic potential of HT1080 cells (neovascularization)", "setting": "HT1080 cells [14]", "value": "significantly reduced the angiogenic potential of HT1080 cells"}, {"measurement": "invasion of CAM tissue", "setting": "[15]", "value": "reduced invasion of CAM tissue"}]}]}
